Source: the supplement of paper PMC11451515

System: P12-Ichikawa
Assay: cell viability relative to DMSO control; higher = less cytotoxic
Conditions: 48 h
Summary of the method: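 Three leukemia lines were tested: NOMO1 and SEM at 500 cells/well and P12-Ichikawa at 1000 cells/well. Each was adapted for at least four passages in each medium and seeded in 5 μl in 1536-well plates, and library compounds in DMSO were pin-dosed from 47 μM to 0.79 nM in 11 threefold steps. After 48 h at 37°C, CellTiter-Glo One luminescence was read. Viability is a percentage relative to DMSO wells on each plate, with cell-free wells as background.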

[1] = HPLM + 10% dialyzed FBS, 0.000781 µM
[2] = HPLM + 10% dialyzed FBS, 0.00234 µM
[3] = HPLM + 10% dialyzed FBS, 0.00702 µM
[4] = HPLM + 10% dialyzed FBS, 0.0211 µM
[5] = HPLM + 10% dialyzed FBS, 0.0632 µM
[6] = HPLM + 10% dialyzed FBS, 0.19 µM
[7] = HPLM + 10% dialyzed FBS, 0.569 µM
[8] = HPLM + 10% dialyzed FBS, 1.71 µM
[9] = HPLM + 10% dialyzed FBS, 5.12 µM
[10] = HPLM + 10% dialyzed FBS, 15.4 µM
[11] = HPLM + 10% dialyzed FBS, 46.1 µM
[12] = RPMI 5 mM glucose + 10% FBS, 0.000781 µM
[13] = RPMI 5 mM glucose + 10% FBS, 0.00234 µM
[14] = RPMI 5 mM glucose + 10% FBS, 0.00702 µM
[15] = RPMI 5 mM glucose + 10% FBS, 0.0211 µM
[16] = RPMI 5 mM glucose + 10% FBS, 0.0632 µM
[17] = RPMI 5 mM glucose + 10% FBS, 0.19 µM
[18] = RPMI 5 mM glucose + 10% FBS, 0.569 µM
[19] = RPMI 5 mM glucose + 10% FBS, 1.71 µM
[20] = RPMI 5 mM glucose + 10% FBS, 5.12 µM
[21] = RPMI 5 mM glucose + 10% FBS, 15.4 µM
[22] = RPMI 5 mM glucose + 10% FBS, 46.1 µM
[23] = RPMI 5 mM glucose + 10% dialyzed FBS, 0.000781 µM
[24] = RPMI 5 mM glucose + 10% dialyzed FBS, 0.00234 µM
[25] = RPMI 5 mM glucose + 10% dialyzed FBS, 0.00702 µM
[26] = RPMI 5 mM glucose + 10% dialyzed FBS, 0.0211 µM
[27] = RPMI 5 mM glucose + 10% dialyzed FBS, 0.0632 µM
[28] = RPMI 5 mM glucose + 10% dialyzed FBS, 0.19 µM
[29] = RPMI 5 mM glucose + 10% dialyzed FBS, 0.569 µM
[30] = RPMI 5 mM glucose + 10% dialyzed FBS, 1.71 µM
[31] = RPMI 5 mM glucose + 10% dialyzed FBS, 5.12 µM
[32] = RPMI 5 mM glucose + 10% dialyzed FBS, 15.4 µM
[33] = RPMI 5 mM glucose + 10% dialyzed FBS, 46.1 µM

Row | SMILES | cell viability [1] [%] | cell viability [2] [%] | cell viability [3] [%] | cell viability [4] [%] | cell viability [5] [%] | cell viability [6] [%] | cell viability [7] [%] | cell viability [8] [%] | cell viability [9] [%] | cell viability [10] [%] | cell viability [11] [%] | cell viability [12] [%] | cell viability [13] [%] | cell viability [14] [%] | cell viability [15] [%] | cell viability [16] [%] | cell viability [17] [%] | cell viability [18] [%] | cell viability [19] [%] | cell viability [20] [%] | cell viability [21] [%] | cell viability [22] [%] | cell viability [23] [%] | cell viability [24] [%] | cell viability [25] [%] | cell viability [26] [%] | cell viability [27] [%] | cell viability [28] [%] | cell viability [29] [%] | cell viability [30] [%] | cell viability [31] [%] | cell viability [32] [%] | cell viability [33] [%]
1 | CCC(C)(Oc1ccc(C2(c3ccc(OC(C)(CC)C(=O)O)cc3)CCCCC2)cc1)C(=O)O (stereo unspecified) | 109 | 106 | 103 | 110 | 99.2 | 103 | 103 | 106 | 107 | 94 | 98.4 | 90.9 | 95.6 | 97 | 93.2 | 97.8 | 97.2 | 97.6 | 101 | 100 | 92.1 | 94.1 | 87.5 | 95.5 | 89 | 86.6 | 96.8 | 92 | 82.1 | 91 | 89.1 | 86.7 | 85.3
2 | COc1ccc(-c2nc(N3CCOCC3)c3sc(CN(C)c4ncc(C(=O)NO)cn4)cc3n2)cn1 | 109 | 121 | 101 | 62.6 | 6.62 | 7.21 | 7.09 | 6.69 | 6.67 | 6.8 | 7.92 | 102 | 127 | 111 | 57.6 | 7.68 | 7.7 | 7.72 | 6.89 | 7.19 | 7.05 | 5.24 | 107 | 119 | 108 | 74.2 | 10.5 | 8.35 | 8.38 | 8.07 | 7.55 | 6.64 | 5.83
3 | N[C@H](CSC(c1ccccc1)(c1ccccc1)c1ccccc1)C(=O)O | 107 | 112 | 121 | 129 | 108 | 114 | 117 | 120 | 115 | 114 | 108 | 97.6 | 112 | 115 | 124 | 116 | 122 | 120 | 119 | 125 | 124 | 131 | 90.9 | 116 | 122 | 116 | 118 | 112 | 115 | 121 | 127 | 121 | 116
4 | CNC1CCC(N(Cc2cccc(-c3ccncc3)c2)C(=O)c2sc3c(F)ccc(F)c3c2Cl)CC1 (stereo unspecified) | 87.6 | 101 | 106 | 105 | 107 | 109 | 104 | 114 | 101 | 99.3 | 71.4 | 92.9 | 109 | 98.2 | 104 | 110 | 105 | 108 | 100 | 106 | 94.9 | 72.8 | 92.8 | 102 | 105 | 105 | 97.5 | 105 | 106 | 94.3 | 103 | 93.6 | 55.3
5 | CN1\C(=C(\O)C2=CC=CC=C2[S+]1([O-])=O)C(=O)NC3=NC=C(C)S3 | 95 | 95.7 | 93.9 | 94.6 | 99.3 | 100 | 98.4 | 98.3 | 101 | 97.5 | 112 | 91.8 | 91.7 | 88 | 86 | 93.8 | 88.8 | 84.8 | 89 | 95.4 | 96.7 | 112 | 79.3 | 92.8 | 83.1 | 91.4 | 96.2 | 87 | 92.7 | 87.8 | 80.8 | 90 | 86.7
6 | COc1cc(OC)c(/C=C/[S+](=O)([O-])Cc2ccc(OC)c(NCC(=O)[O][Na])c2)c(OC)c1 | 125 | 124 | 123 | 120 | 116 | 87.5 | 18.3 | 13.2 | 12.7 | 10.1 | 9.65 | 124 | 120 | 126 | 104 | 118 | 76.9 | 23.1 | 12.5 | 11.1 | 11.4 | 10.8 | 120 | 122 | 120 | 115 | 116 | 50.1 | 24.6 | 13.8 | 12 | 11.3 | 9.89
7 | COc1ccc(-c2ccc3c(N4CCOC[C@@H]4C)nc(N4CCOC[C@@H]4C)nc3n2)cc1CO | 108 | 82.1 | 97 | 82.8 | 83.9 | 77.7 | 75.2 | 74.7 | 64.3 | 37.6 | 6.75 | 93.9 | 58.7 | 80.3 | 77.5 | 66.2 | 59.7 | 60.5 | 58.9 | 54.3 | 42.4 | 18.6 | 103 | 65.6 | 86.6 | 78.7 | 76.1 | 70.8 | 66.5 | 58.3 | 47.2 | 39 | 10.3
